Reference: US20240247031A1, “COMPOSITION FOR TREATING CANCER CONTAINING TELOMERASE-TARGETING GNRH ANTAGONIST-DERIVED PEPTIDE HS1002” (Research & Business Foundation Sungkyunkwan University, priority 2023, published 2024)
Converted amounts (≈) assume the structure as drawn. Where a SMILES comes first, the peptide text is derived from it. [ ]: non-standard residue; d: D form. pGlu = O=C1CC[C@@H](C(=O)O)N1

Experiments:
LNCaP = test: cells; assay type: cell-based, human; details: 48 h; for Cytotoxicity (IC50) LNCaP: human
Description: (§1) To evaluate anticancer activities of the produced peptides on various types of cancer cells, MTT analysis was performed. Human prostate cancer cell lines (LNCaP, PC3, and DU145), human breast cancer cell lines (MDA-MB-231 and MCF-7), lung cancer cell line (A549), and ovarian cancer cell line (SKOV3) were cultured in RPMI media supplemented with 1% penicillin/streptomycin and 1% fetal bovine serum (all from Life Technologies, Grand Island, NY). The cells were seeded in 96-well plates containing 100 μL of growth media for 24 h. The media were removed, and then 100 μL of the peptide (solvent DPBS) at each concentration was added to each well and incubated at 37° C. for 48 h. After incubation for 48 h, 100 μL of MTT reagent was added to each well. The cells were incubated at 37° C. for 4 h, and then the supernatant was removed. Formazan crystals were dissolved in 100 μL of DMSO with gentle stirring at 37° C. for 10 min. The absorbance per well was measured at 540 nm using a VERSA max microplate reader (Molecular Devices Corp.).

MCF-7 = test: cells; assay type: cell-based, human; details: for Cytotoxicity (IC50) MCF-7: human, 48 h
Description: as §1

A549 = test: MTT cytotoxicity on various cancer cells (Table 1); assay type: cell-based, human; details: for Cytotoxicity (IC50) A549: human, 48 h
Description: as §1

DU145 = test: MTT cytotoxicity on various cancer cells (Table 1); assay type: cell-based, human; details: for Cytotoxicity (IC50) DU145: human, 48 h
Description: as §1

PC3 = test: MTT cytotoxicity on various cancer cells (Table 1); assay type: cell-based, human; details: for Cytotoxicity (IC50) PC3: human, 48 h
Description: as §1

SKOV3 = test: MTT cytotoxicity on various cancer cells (Table 1); assay type: cell-based, human; details: for Cytotoxicity (IC50) SKOV3: human, 48 h
Description: as §1

[1] = molecular target: T1, gonadotropin-releasing hormone (GnRH) receptor (UniProt P30968 1-328, limits assumed); test: cell-based or functional assay
T1 sequence (looked up): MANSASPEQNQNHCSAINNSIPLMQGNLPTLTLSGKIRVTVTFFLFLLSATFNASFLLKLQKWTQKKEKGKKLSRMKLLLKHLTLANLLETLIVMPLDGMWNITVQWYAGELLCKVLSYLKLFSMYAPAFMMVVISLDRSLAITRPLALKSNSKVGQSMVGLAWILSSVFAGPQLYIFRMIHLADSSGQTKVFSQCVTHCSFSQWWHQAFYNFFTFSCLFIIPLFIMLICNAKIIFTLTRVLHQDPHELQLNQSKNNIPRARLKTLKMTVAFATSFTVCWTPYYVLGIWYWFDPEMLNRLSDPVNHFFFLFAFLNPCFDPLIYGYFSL

CC(C)C[C@H](NC(=O)[C@H](C)NC(=O)[C@@H]1CCCN1C(=O)[C@H](CCCNC(=N)N)NC(=O)[C@H](C)NC(=O)[C@@H](N)CCC(=O)O)C(=O)N[C@@H](CC(C)C)C(=O)N[C@@H](CO)C(=O)N[C@H](C(=O)N[C@@H](CCCNC(=N)N)C(=O)N[C@@H](Cc1ccccc1)C(=O)N[C@@H](CCCNC(=N)N)C(=O)N1CCC[C@H]1C(=O)N[C@@H](CCCCN)C(=O)O)[C@@H](C)O [HS1005] (H-EARPALLSTRFRPK-OH; N-terminus and C-terminus assumed)
Cytotoxicity (IC50) LNCaP (LNCaP): 11.23 ± 1.01 µg/mL | Cytotoxicity (IC50) MCF-7 (MCF-7): 44.15 ± 2.63 µg/mL | Cytotoxicity (IC50) A549 (A549): 14.75 ± 0.83 µg/mL | Cytotoxicity (IC50) DU145 (DU145): 16.17 ± 1.28 µg/mL | Cytotoxicity (IC50) PC3 (PC3): 13.31 ± 1.05 µg/mL | Cytotoxicity (IC50) SKOV3 (SKOV3): 14.08 ± 1.04 µg/mL

CC(=O)O[C@H]1C(=O)[C@@]2(C)[C@H]([C@H](OC(=O)c3ccccc3)[C@]3(O)C[C@H](OC(=O)[C@H](O)[C@@H](NC(=O)c4ccccc4)c4ccccc4)C(C)=C1C3(C)C)[C@]1(OC(C)=O)CO[C@@H]1C[C@@H]2O [PTX, Paclitaxel, reference compound]
IC50 (LNCaP; Homo sapiens, LNCaP, read-out: Cytotoxicity (IC50) LNCaP): 0.81 ± 0.09 µg/mL (≈ 0.949 µM) | IC50 (MCF-7; Homo sapiens, MCF7, 48 h, read-out: Cytotoxicity (IC50) MCF-7): 9.27 ± 1.12 µg/mL (≈ 10.9 µM) | IC50 (A549; Homo sapiens, A549, 48 h, read-out: Cytotoxicity (IC50) A549): 3.62 ± 0.04 µg/mL (≈ 4.24 µM) | IC50 (DU145; Homo sapiens, DU-145, 48 h, read-out: Cytotoxicity (IC50) DU145): 0.73 ± 0.04 µg/mL (≈ 0.855 µM) | IC50 (PC3; Homo sapiens, PC-3, 48 h, read-out: Cytotoxicity (IC50) PC3): 59.4 ± 3.21 µg/mL (≈ 69.6 µM) | IC50 (SKOV3; Homo sapiens, SK-OV-3, 48 h, read-out: Cytotoxicity (IC50) SKOV3): 5.41 ± 0.19 µg/mL (≈ 6.34 µM)

CCNC(=O)[C@@H]1CCCN1C(=O)[C@@H](NC(=O)[C@H](Cc1ccccc1)NC(=O)[C@H](C)NC(=O)[C@H](CC(C)C)NC(=O)[C@H](CCCNC(=N)N)NC(=O)[C@H](Cc1ccc(O)cc1)NC(=O)[C@H](CO)NC(=O)[C@H](Cc1c[nH]c2ccccc12)NC(=O)[C@H](Cc1c[nH]cn1)NC(=O)[C@@H]1CCC(=O)N1)[C@@H](C)CC [HS1004] ([pGlu]HWSYRLAFIP-NHEt; C-terminus assumed)
Cytotoxicity (IC50) LNCaP (LNCaP): 9.97 ± 0.85 µg/mL | Cytotoxicity (IC50) MCF-7 (MCF-7): 37.47 ± 1.58 µg/mL | Cytotoxicity (IC50) DU145 (DU145): 17.54 ± 0.74 µg/mL | Cytotoxicity (IC50) PC3 (PC3): 16.49 ± 0.74 µg/mL | Cytotoxicity (IC50) SKOV3 (SKOV3): 5.19 ± 0.82 µg/mL

CC(C)C[C@H](NC(=O)[C@H](C)NC(=O)[C@@H]1CCCN1C(=O)[C@H](CCCNC(=N)N)NC(=O)[C@H](C)NC(=O)[C@@H](N)CCC(=O)O)C(=O)N[C@@H](CC(C)C)C(=O)N[C@@H](CO)C(=O)N[C@H](C(=O)N[C@@H](CCCNC(=N)N)C(=O)N[C@@H](CC(C)C)C(=O)N[C@@H](CCCNC(=N)N)C(=O)N1CCC[C@H]1C(=O)O)[C@@H](C)O [HS1001] (H-EARPALLSTRLRP-OH; N-terminus and C-terminus assumed)
Cytotoxicity (IC50) LNCaP (LNCaP): 6.55 ± 0.96 µg/mL | Cytotoxicity (IC50) MCF-7 (MCF-7): 48.26 ± 1.23 µg/mL | Cytotoxicity (IC50) A549 (A549): 4.18 ± 0.15 µg/mL | Cytotoxicity (IC50) DU145 (DU145): 7.82 ± 0.37 µg/mL | Cytotoxicity (IC50) PC3 (PC3): 8.05 ± 1.58 µg/mL | Cytotoxicity (IC50) SKOV3 (SKOV3): 6.14 ± 0.79 µg/mL

CCNC(=O)[C@@H]1CCCN1C(=O)[C@@H](NC(=O)[C@H](Cc1ccccc1)NC(=O)[C@H](CCCNC(=N)N)NC(=O)[C@@H]1CCCN1C(=O)[C@H](C)NC(=O)[C@H](Cc1ccc(O)cc1)NC(=O)[C@H](CO)NC(=O)[C@H](Cc1c[nH]c2ccccc12)NC(=O)[C@H](Cc1c[nH]cn1)NC(=O)[C@@H]1CCC(=O)N1)[C@@H](C)CC [HS1003] ([pGlu]HWSYAPRFIP-NHEt; C-terminus assumed)
Cytotoxicity (IC50) LNCaP (LNCaP): 10.9 ± 0.48 µg/mL | Cytotoxicity (IC50) MCF-7 (MCF-7): 47.28 ± 2.05 µg/mL | Cytotoxicity (IC50) A549 (A549): 9.48 ± 0.08 µg/mL | Cytotoxicity (IC50) DU145 (DU145): 12.37 ± 0.31 µg/mL | Cytotoxicity (IC50) PC3 (PC3): 24.05 ± 1.13 µg/mL | Cytotoxicity (IC50) SKOV3 (SKOV3): 5.79 ± 0.38 µg/mL

CC(C)C[C@H](NC(=O)CNC(=O)[C@@H](NC(=O)[C@H](CO)NC(=O)[C@H](CC(C)C)NC(=O)[C@H](CC(C)C)NC(=O)[C@H](C)NC(=O)[C@@H]1CCCN1C(=O)[C@H](CCCNC(=N)N)NC(=O)[C@H](C)NC(=O)[C@@H](N)CCC(=O)O)[C@@H](C)O)C(=O)N[C@@H](CCCNC(=N)N)C(=O)N1CCC[C@H]1C(=O)N[C@@H](CCCCN)C(=O)O [HS1006] (H-EARPALLSTGLRPK-OH; N-terminus and C-terminus assumed)
Cytotoxicity (IC50) LNCaP (LNCaP): 14.17 ± 0.47 µg/mL | Cytotoxicity (IC50) MCF-7 (MCF-7): 55.24 ± 2.41 µg/mL | Cytotoxicity (IC50) A549 (A549): 10.68 ± 0.25 µg/mL | Cytotoxicity (IC50) DU145 (DU145): 19.46 ± 0.26 µg/mL | Cytotoxicity (IC50) PC3 (PC3): 15.2 ± 1.12 µg/mL | Cytotoxicity (IC50) SKOV3 (SKOV3): 13.91 ± 1.17 µg/mL

B1: peptide HS1002 (peptide)
peptide: [pGlu]HWSYRLRFIP-NHEt
SMILES: CCNC(=O)[C@@H]1CCCN1C(=O)[C@@H](NC(=O)[C@H](Cc1ccccc1)NC(=O)[C@H](CCCNC(=N)N)NC(=O)[C@H](CC(C)C)NC(=O)[C@H](CCCNC(=N)N)NC(=O)[C@H](Cc1ccc(O)cc1)NC(=O)[C@H](CO)NC(=O)[C@H](Cc1c[nH]c2ccccc12)NC(=O)[C@H](Cc1c[nH]cn1)NC(=O)[C@@H]1CCC(=O)N1)[C@@H](C)CC
CRE-luciferase activity in HEK293-GnRHR cells [1]: 2 fold
